In patent US7101908B2, “Bicyclic carbohydrate compounds useful in the treatment of infections caused by herpesviridae” (Kemin Pharma Europe B.V.B.A., priority 2001, dated 2006):
Converted amounts (≈) assume the structure as drawn.

Legend:
CMV Davis strain = assay: Plaque reduction assay in HEL cells, CMV Davis strain; assay type: cell-based, human cytomegalovirus; settings: human embryonic lung fibroblast (HEL) cells; for IC50: Human betaherpesvirus 5, HEL, 168 h, plaques counted on day 7, read-out: IC50 CMV David Strain (inhibitory concentration required to reduce virus plaque formation by 50%)
Experimental: (§1) The compounds were screened against various pathogenic viruses and more specific the human cytomegalovirus (CMV). […] After 2 hours of incubation at 37° C., the infected cells were replenished with 0.1 ml of medium containing serial dilutions of the test compound. On day 7 the plaques were counted microscopically after staining the cells with Giemsa's solution. The minimum antiviral concentration was expressed as the dose required to inhibit virus-induced plaque formation by 50%.

CMV AD-169 strain = assay: Plaque reduction assay in HEL cells, CMV AD-169 strain; assay type: cell-based, human cytomegalovirus; settings: human embryonic lung fibroblast (HEL) cells; for IC50: Human betaherpesvirus 5, AD169, HEL, 168 h, plaques counted on day 7, read-out: IC50 CMV AD-169 Strain (inhibitory concentration required to reduce virus plaque formation by 50%); for IC50 CMV AD-169 Strain (inhibitory concentration required to reduce virus plaque formation by 50%): plaques counted on day 7
Experimental: as §1

[1] = intravenous ganciclovir; people; cited from earlier work

Row | SMILES | melting point [°C] | IC50 (CMV Davis strain) [µg/mL] | IC50 (CMV AD-169 strain) [µg/mL] | IC50 CMV David Strain (inhibitory concentration required to reduce virus plaque formation by 50%) (CMV Davis strain; plaques counted on day 7) [µg/mL] | IC50 CMV AD-169 Strain (inhibitory concentration required to reduce virus plaque formation by 50%) (CMV AD-169 strain) [µg/mL] | IV recipients who have to stop treatment because of side effects [1]
1 | C#CCO[C@@H]1[C@@H](OCC#C)[C@H](Cc2ccccc2)O[C@@H]2CO[C@@H](c3ccccc3)O[C@@H]12 [Compound A5] | 81 to 83 | 0.5 (≈ 1.19 µM) | 0.5 (≈ 1.19 µM) |  |  | 
2 | CO[C@@H]1[C@@H](OC)[C@H](c2ccccc2)O[C@@H]2CO[C@@H](c3ccccc3)O[C@@H]12 [Compound A1] | 97 to 98 | 2 (≈ 5.61 µM) | 2.7 (≈ 7.58 µM) |  |  | 
3 | CO[C@@H]1[C@@H](OC)[C@H](c2ccccc2)O[C@@H]2CO[C@@H](c3ccc4ccccc4c3)O[C@@H]12 [Compound A6] | 135 | 0.8 (≈ 1.97 µM) | 0.47 (≈ 1.16 µM) |  |  | 
4 | CCO[C@@H]1[C@@H](OCC)[C@H](Cc2ccccc2)O[C@@H]2CO[C@@H](c3ccccc3)O[C@@H]12 [Compound A3] | 87 to 89 | 3.2 (≈ 8.03 µM) | 2.5 (≈ 6.27 µM) | 2.8 (≈ 7.03 µM) | 2.7 (≈ 6.78 µM) | 
5 | CO[C@@H]1[C@@H](OC)[C@H](Cc2ccccc2)O[C@@H]2CO[C@@H](c3ccccc3)O[C@@H]12 [Compound A2] |  | 20 (≈ 54 µM) | 5 (≈ 13.5 µM) |  |  | 
6 | CO[C@@H]1[C@@H](OC)[C@H](c2ccccc2)O[C@@H]2CO[C@@H](c3ccc(-c4ccccc4)cc3)O[C@@H]12 [Compound A7] | 111 to 112 | 0.6 (≈ 1.39 µM) | 0.8 (≈ 1.85 µM) |  |  | 
7 | Nc1nc(O)c2ncn(COC(CO)CO)c2n1 [Ganciclovir, reference compound] |  | 0.5 (≈ 1.96 µM) | 1.3 (≈ 5.09 µM) |  | 2.5 (≈ 9.79 µM) | More than 10%
